According to patent publication US20240245789A1, “POLYMER CONJUGATES OF DRUGS TARGETING 5-HT AND OTHER RECEPTORS IN THE CENTRAL NERVOUS SYSTEM (CNS) THAT ALSO TARGETS RECEPTORS OUTSIDE OF THE CNS” (Arbormentis LLC, priority 2021, published 2024):

Tests used:
NMDAR1 receptor = assay: protein expression of NMDAR1 in the liver of NAFLD mice
TNF-α = assay: mRNA expression of TNF-α in HepG2 cells (in vitro NAFLD model); conditions: PA:OA mix
CCL-2 = assay: mRNA expression of CCL2 in HepG2 cells (in vitro NAFLD model); conditions: PA:OA mix
[1] = test system: mice fed with standard diet; conditions: 0.05 mg/kg daily

## CN(C)CCc1c[nH]c2cccc(O)c12 [psilocin]
NMDAR1 receptor
  expression of the NMDAR1 receptor in the liver: counteracting its overexpression induced by steatosis
TNF-α
  mRNA expression of TNF-α: reduction in the mRNA expression
CCL-2
  mRNA expression of CCL-2: reduction in the mRNA expression

## CN(C)CCc1c[nH]c2cccc(OP(=O)(O)O)c12 [psilocybin]
[1]
  signs of hepatic damage (hepatotoxicity): no signs of hepatic damage were observed
